Source: patent US6818146B2, “Chemical base for engine coolant/antifreeze with improved thermal stability properties” (Shell Oil Company, priority 2001, dated 2004)
Where two headings read alike, the source gives them in different places.

Tests used:
[1] = Physical property data; type: physicochemical
[2] = Extended aging / oxidation comparison on D-4340 rig at 150° C.; type: physicochemical; details: 150° C. for 60 Days, two fully formulated coolant inhibition packages
[3] = ASTM D1177 freeze point; type: physicochemical
Description: FIG. 1 illustrates the aqueous solution freeze point characteristics of the 1,3-propanediol and GM 6043 (EG). […] This could be an indication that actual protection against hard, damaging freezing is actually better, approaching the effective protection point of the EG-based product. […] We feel that the antifreeze properties of the chemistry are acceptable. Indeed a 50% solution would provide adequate protection against freezing in most geographies. TC in FIG. 1 is an internal designation for the PDO aqueous solutions at 50, 55, and 60 volume percent PDO.

[4] = Toxicity LD50 data and review of MSDS
[5] = 25° C.; cited from earlier work

Structure (SMILES)	Specific Gravity, 20° C. [1]	Viscosity [1] [cP]	Degradation in terms of pH value and formation of oxidation by-products [2]	State at the reported freeze point [3]	Specific Gravity, 20° C. ([1]; 20° C.)	Viscosity ([1]; 20° C.) [cP]	Toxicity [4]	Thermal Conductivity [5] [BTU/hr-ft-F]
OCCO [EG, ethylene glycol]	1.115	17						
OCCCO [PDO, 1,3-propanediol]			PDO degraded less	soft and slushy	1.0526	52	PDO offers low	
CC(O)CO (stereo not shown) [PG, propylene glycol]					1.032	49		0.119
